According to paper PMC7013301 (Evidence-based Complementary and Alternative Medicine : eCAM, 2020):
Like-named read-outs stand apart in the source and are kept apart here. No end group written: not given here.

Key:
[1] = biological target: T1, human NPY Y2 receptor (Homo sapiens, UniProt P49146); test: Antagonistic activity of shogaol and gingerol against NPY Y2 receptor, calcium flux in RBL cells; assay type: cell-based; details: calcium flux induced by 15 nM human NPY
T1 construct: host or cells: RBL
T1 sequence (P49146 1-381): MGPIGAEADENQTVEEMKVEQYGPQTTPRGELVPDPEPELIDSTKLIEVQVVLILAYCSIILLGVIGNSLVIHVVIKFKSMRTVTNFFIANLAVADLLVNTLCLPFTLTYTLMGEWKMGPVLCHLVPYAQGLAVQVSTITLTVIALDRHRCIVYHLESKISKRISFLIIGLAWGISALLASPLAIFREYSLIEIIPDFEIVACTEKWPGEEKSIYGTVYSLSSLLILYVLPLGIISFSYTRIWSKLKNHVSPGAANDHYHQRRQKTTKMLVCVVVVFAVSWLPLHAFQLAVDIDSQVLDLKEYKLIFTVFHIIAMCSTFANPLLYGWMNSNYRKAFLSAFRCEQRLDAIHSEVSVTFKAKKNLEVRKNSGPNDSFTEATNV
Description: (§1) Assays were performed at Eurofins Discovery (MO, USA). Briefly, evaluation of the inhibitory activities against human recombinant acetylcholinesterase (AChE) expressed in HEK-293 cells was performed by preincubation with test compound and/or vehicle with 41ng/ml of enzyme for 15 minutes at 25°C in phosphate buffer pH 7.4. After 20 minute incubation with 0.7 mM acetylthiocholine iodide and 0.5 mM 5,5-dithiobis-2-nitrobenzoic acid, the spectrophotometric absorbance was read at 405 nm (Catalog No. 104010). Evaluation of the antagonistic activities against human CRF2 receptor transfected in HEK-293 cells was performed by measuring the effects of the test compounds on cAMP production induced by 100 nM human CRF incubated for 30 minutes at room temperature via the HTRF detection method (Catalog No. 2086). Evaluation of the antagonistic activities against human dopamine D2, D3, and neuropeptide Y (NPY) Y2 receptors expressed in CHO-K1 cells, CHO-K1, and KAN-TS cells, respectively, was performed by preincubation of the test compounds and/or vehicle with the membrane proteins (0.1, 0.04, 0.04 mg/ml, respectively) and GDP (10, 1, 0.001 mM) in 20 mM HEPES, pH 7.4, 100 mM NaCl, 10 mM MgCl2, 1 mM DTT, and 1 mM EDTA for 20 minutes at 25°C, and SPA beads are then added for another 60 minutes at 30°C. The reaction was initiated by 0.3 nM [^35S]GTPγS for an additional incubation period (15, 30, 30 minute). Inhibition on increase of [^35S]GTPS binding response induced by dopamine (10, 0.03 mM) or 3 nM human NPY was assessed as receptor antagonist activities of test compounds (Catalog No. 310200, 310400, 332520). Evaluation of the antagonistic activities of shogaol and gingerol against human […] NPY Y2 receptor expressed in RBL cells was performed by measuring the effects of the test compounds on calcium flux induced by 15 nM human NPY (Catalog No. 4287). A concentration-response curve was generated to calculate IC50 values.

[2] = biological target: T2, human dopamine D2 receptor (Homo sapiens, UniProt P14416); test: Antagonistic activity against dopamine D2 receptor, [35S]GTPγS binding, CHO-K1 membranes; assay type: biochemical
T2 construct: host or cells: CHO-K1 (membranes)
T2 sequence (P14416 whole entry): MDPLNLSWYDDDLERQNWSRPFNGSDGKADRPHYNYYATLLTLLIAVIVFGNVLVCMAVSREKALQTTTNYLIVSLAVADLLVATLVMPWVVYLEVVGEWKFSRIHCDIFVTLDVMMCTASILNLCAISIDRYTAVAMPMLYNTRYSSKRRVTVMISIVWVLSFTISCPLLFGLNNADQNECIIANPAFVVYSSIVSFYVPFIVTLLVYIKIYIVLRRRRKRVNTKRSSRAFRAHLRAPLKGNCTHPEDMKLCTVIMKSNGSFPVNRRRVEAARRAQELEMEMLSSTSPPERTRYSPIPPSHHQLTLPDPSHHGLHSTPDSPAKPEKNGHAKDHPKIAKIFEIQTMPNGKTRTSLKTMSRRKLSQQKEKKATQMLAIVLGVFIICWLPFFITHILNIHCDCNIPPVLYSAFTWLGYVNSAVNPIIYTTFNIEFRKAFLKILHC
Description: as §1

[3] = biological target: T3, human CRF2 receptor (Homo sapiens, UniProt Q13324); test: Antagonistic activity against CRF2 receptor, CRF-induced cAMP production (HTRF) in HEK-293 cells; assay type: cell-based
T3 construct: host or cells: HEK-293
T3 sequence (Q13324 1-411): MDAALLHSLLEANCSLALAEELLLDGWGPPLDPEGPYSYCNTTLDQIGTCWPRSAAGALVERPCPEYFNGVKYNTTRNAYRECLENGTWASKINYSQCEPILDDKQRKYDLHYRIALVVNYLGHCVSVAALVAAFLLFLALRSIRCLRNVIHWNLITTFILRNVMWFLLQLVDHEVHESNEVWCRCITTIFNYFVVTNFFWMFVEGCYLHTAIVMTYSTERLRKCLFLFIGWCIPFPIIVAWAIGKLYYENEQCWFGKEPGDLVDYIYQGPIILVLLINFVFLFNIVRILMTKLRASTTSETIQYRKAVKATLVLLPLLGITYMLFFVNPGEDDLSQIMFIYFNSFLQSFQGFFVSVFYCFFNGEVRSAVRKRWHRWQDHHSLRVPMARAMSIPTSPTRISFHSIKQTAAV
Description: as §1

[4] = biological target: T4, human dopamine D3 receptor (Homo sapiens, UniProt P35462); test: Antagonistic activity against dopamine D3 receptor, [35S]GTPγS binding, CHO-K1 membranes; assay type: biochemical
T4 construct: host or cells: CHO-K1 (membranes)
T4 sequence (P35462 whole entry): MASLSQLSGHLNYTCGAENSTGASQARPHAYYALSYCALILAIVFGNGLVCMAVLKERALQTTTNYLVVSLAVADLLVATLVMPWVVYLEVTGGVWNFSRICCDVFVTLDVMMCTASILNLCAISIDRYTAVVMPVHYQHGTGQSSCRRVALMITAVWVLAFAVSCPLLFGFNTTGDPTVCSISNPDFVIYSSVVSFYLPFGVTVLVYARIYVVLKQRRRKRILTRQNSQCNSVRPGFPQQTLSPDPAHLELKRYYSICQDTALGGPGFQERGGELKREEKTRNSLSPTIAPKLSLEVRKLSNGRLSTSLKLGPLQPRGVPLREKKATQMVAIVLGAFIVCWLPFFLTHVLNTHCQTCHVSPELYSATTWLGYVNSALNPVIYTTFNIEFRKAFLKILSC
Description: as §1

[5] = biological target: T5, human recombinant acetylcholinesterase (AChE) (Homo sapiens, UniProt P22303); test: Inhibition of recombinant acetylcholinesterase, spectrophotometric (acetylthiocholine/DTNB); assay type: biochemical; details: pH 7.4, 25°C
T5 construct: purchased Eurofins Discovery 104010; host or cells: HEK-293
T5 sequence (P22303 32-614): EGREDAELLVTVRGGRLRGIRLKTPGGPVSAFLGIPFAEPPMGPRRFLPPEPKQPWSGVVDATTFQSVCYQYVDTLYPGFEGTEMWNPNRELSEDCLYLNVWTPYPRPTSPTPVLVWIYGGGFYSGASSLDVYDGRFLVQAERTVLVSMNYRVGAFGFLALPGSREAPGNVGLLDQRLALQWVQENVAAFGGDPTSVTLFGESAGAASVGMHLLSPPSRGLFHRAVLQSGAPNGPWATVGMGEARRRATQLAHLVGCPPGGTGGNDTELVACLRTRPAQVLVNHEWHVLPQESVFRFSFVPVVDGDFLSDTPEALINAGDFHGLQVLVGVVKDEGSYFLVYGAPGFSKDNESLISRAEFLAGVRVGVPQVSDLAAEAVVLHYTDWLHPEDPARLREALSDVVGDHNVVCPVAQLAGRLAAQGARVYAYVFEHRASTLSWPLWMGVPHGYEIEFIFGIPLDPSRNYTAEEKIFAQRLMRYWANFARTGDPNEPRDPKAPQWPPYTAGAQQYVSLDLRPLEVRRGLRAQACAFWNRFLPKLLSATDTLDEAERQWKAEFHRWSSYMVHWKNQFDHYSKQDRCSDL
Description: as §1

[6] = cited from earlier work
[7] = tested on: AChE; details: cited from earlier work
[8] = biological target: T6, human neuropeptide Y (NPY) Y2 receptor (Homo sapiens, UniProt P49146); test: Antagonistic activity against NPY Y2 receptor, [35S]GTPγS binding, KAN-TS membranes; assay type: biochemical
T6 construct: host or cells: KAN-TS (membranes)
T6 sequence (P49146 1-381): T1 sequence (P49146 1-381)
Description: as §1

[9] = tested on: C57BL/6 mice; test: CRF-induced delayed gastric emptying of solid meal in mice; assay type: in vivo; details: CRF ICV 0.3 and 1.0 μg/mouse, vs vehicle
Description: Seven-week-old male C57BL/6 mice (weighing 20–27 g) were purchased from Charles River Laboratories (Tokyo, Japan). Five mice were housed in a plastic cage (230 × 310 × 155 mm) with bedding materials and acclimated for a week in a controlled environment (20–26°C, 30–70% humidity) under a 12-hour light/dark cycle with free access to standard chow and water. This study was approved by and conducted according to the guidelines of the experimental animal ethics committees of Tsumura & Co. (Tokyo, Japan; Permit No. 14-094-1).
BGH was manufactured by Tsumura & Co., complying with the quality standards authorized in the Japanese Pharmacopoeia, which was published under the authority of the Japanese Ministry of Health, Labour and Welfare. […]
Solid gastric emptying was evaluated using a test meal containing 20 g of ground meal and 40.61 mL of distilled water. […] The gastric emptying of solid meal was calculated using the equation below: […]

[10] = inhibition of dopamine-induced [35S]GTPγS binding, read-out: IC50 value D2
[11] = cAMP production induced by 100 nM human CRF, HEK-293, read-out: IC50 value CRF2
[12] = inhibition of dopamine-induced [35S]GTPγS binding, read-out: IC50 value D3
[13] = reported value from previous study (*) ref 23

CCCCC/C=C/C(=O)CCc1ccc(O)c(OC)c1 [6-Shogaol]
IC50 [1]: > 100 µM
IC50 [2, 10]: > 100 µM
IC50 [3, 11]: > 100 µM
IC50 [4, 12]: 11.3 µM
IC50 [5]: > 100 µM

CCCCCCC/C=C/C(=O)CCc1ccc(O)c(OC)c1 [8-Shogaol]
IC50 [1]: > 100 µM
Detection in the brain ([6]; after oral administration of ginger extract ref 34): not detected in the brain
IC50 [2, 10]: 7.22 µM
IC50 [3, 11]: > 100 µM
IC50 [4, 12]: 11.2 µM
IC50 [5]: 18.9 µM

CCCCCCCCC[C@H](O)CC(=O)CCc1ccc(O)c(OC)c1 [10-Gingerol]
IC50 [1]: > 100 µM
IC50 [2, 10]: > 100 µM
IC50 [3, 11]: > 100 µM
IC50 [4, 12]: > 100 µM
IC50 [5]: 25.9 µM

C=CCc1ccc(O)c(-c2ccc(O)c(CC=C)c2)c1 [Honokiol]
Blood-brain barrier passage [6]: capable of traversing the blood-brain barrier
IC50 [2, 10]: 36.2 µM
IC50 [3]: 40 µM
IC50 [4, 12]: 52.7 µM
IC50 [7, 13]: 57 µM
IC50 [8]: > 100 µM

O=c1cc(-c2ccc(O)c(O)c2)oc2cc(O)cc(O)c12 [Luteolin]
Blood-brain barrier passage ([6]; in vivo): capable of crossing blood-brain barrier
IC50 [2]: 48.9 µM
IC50 [3, 11]: > 100 µM
IC50 [4]: > 100 µM
IC50 ([7]; reported value from previous study (**) ref 24): 32.5 µM
IC50 ([8]; inhibition of [35S]GTPγS binding induced by 3 nM human NPY, KAN-TS cells, read-out: IC50 value NPY Y2): 8.39 µM

C=CCc1ccc(O)c(-c2cc(CC=C)ccc2O)c1 [Magnolol]
Blood-brain barrier passage [6]: capable of traversing the blood-brain barrier
IC50 [2]: 43.1 µM
IC50 [3]: 32 µM
IC50 [4]: 50.1 µM
IC50 [7, 13]: 69 µM
IC50 [8]: > 100 µM

O=C(/C=C/c1ccc(O)c(O)c1)O[C@H](Cc1ccc(O)c(O)c1)C(=O)O [Rosmarinic acid]
Blood-brain barrier permeability [6]: extremely low
IC50 [2, 10]: > 100 µM
IC50 [3]: > 100 µM
IC50 [4, 12]: 0.54 µM
IC50 [5]: > 100 µM
IC50 [8]: > 100 µM

CRF: Stress hormone corticotropin-releasing factor (4136-s; Peptide Institute), injected ICV to induce delayed gastric emptying (SEEPPISLDLTFHLLREVLEMARAEQLAQQAHSNRKLMEII; ends and bridges not checked; UniProt P06850 154-194, looked up)
Gastric emptying rate of solid test meal (2 hours) after CRF [9]: significantly decreased
